From ChEMBL document CHEMBL3046102, “Antibacterial and antifungal activities of some trimethoprim salts” (2012)
≈ marks a conversion by molar mass, not a printed value.

What was measured:
Nakaseomyces glabratus [1] = experiment: Antifungal activity against Candida glabrata clinical isolate after 24 to 48 hr by CLSI broth microdilution method; type: functional
Nakaseomyces glabratus [2] = experiment: microbe, parasite or virus in culture; type: functional; conditions: ATCC 36583
Description: Antifungal activity against Candida glabrata ATCC 36583 after 24 to 48 hr by CLSI broth microdilution method

Candida albicans [3] = experiment: microbe, parasite or virus in culture; type: functional; conditions: NRRL Y-27077
Description: Antifungal activity against Candida albicans NRRL Y-27077 after 24 to 48 hr by CLSI broth microdilution method

Enterococcus faecalis = experiment: microbe, parasite or virus in culture; type: functional; conditions: ATCC 29212
Description: Antibacterial activity against Enterococcus faecalis ATCC 29212 after 24 to 48 hr by CLSI broth microdilution method

Klebsiella pneumoniae = experiment: microbe, parasite or virus in culture; type: functional; conditions: ATCC 700603
Description: Antibacterial activity against Klebsiella pneumoniae ATCC 700603 after 24 to 48 hr by CLSI broth microdilution method

Salmonella typhimurium = experiment: microbe, parasite or virus in culture; type: functional, Salmonella enterica subsp. enterica serovar Typhimurium; conditions: Salmonella enterica, NRLL B-4420
Description: Antibacterial activity against Salmonella enterica subsp. enterica serovar Typhimurium NRRL B-4420 after 24 to 48 hr by CLSI broth microdilution method

Proteus vulgaris = experiment: microbe, parasite or virus in culture; type: functional; conditions: NRLL B-123
Description: Antibacterial activity against Proteus vulgaris NRLL B-123 after 24 to 48 hr by CLSI broth microdilution method

Pseudomonas aeruginosa = experiment: microbe, parasite or virus in culture; type: functional; conditions: ATCC 27853
Description: Antibacterial activity against Pseudomonas aeruginosa ATCC 27853 after 24 to 48 hr by CLSI broth microdilution method

Escherichia coli = experiment: microbe, parasite or virus in culture; type: functional; conditions: ATCC 35218
Description: Antibacterial activity against Escherichia coli ATCC 35218 after 24 to 48 hr by CLSI broth microdilution method

Candida parapsilosis = experiment: microbe, parasite or virus in culture; type: functional; conditions: Lodderomyces parapsilosis, NRRL Y-12969
Description: Antifungal activity against Candida parapsilosis NRRL Y-12969 after 24 to 48 hr by CLSI broth microdilution method

[Candida] zeylanoides = microbe, parasite or virus in culture; type: functional; conditions: Dujonia zeylanoides, NRRL Y-1774
Description: Antifungal activity against Candida zeylanoides NRRL Y-1774 after 24 to 48 hr by CLSI broth microdilution method

Pichia kudriavzevii = experiment: microbe, parasite or virus in culture; type: functional; conditions: NRRL Y-7179
Description: Antifungal activity against Pichia kudriavzevii NRRL Y-7179 after 24 to 48 hr by CLSI broth microdilution method

Candida tropicalis = experiment: microbe, parasite or virus in culture; type: functional; conditions: NRRL Y-12968
Description: Antifungal activity against Candida tropicalis NRRL Y-12968 after 24 to 48 hr by CLSI broth microdilution method

Cyberlindnera jadinii = experiment: Antifungal activity against Cyberlindnera jadinii NRRL Y-900 after 24 to 48 hr by CLSI broth microdilution method; type: functional; conditions: Williopsis jadinii
Candida albicans [4] = experiment: Antifungal activity against Candida albicans clinical isolate after 24 to 48 hr by CLSI broth microdilution method; type: functional
Staphylococcus aureus = experiment: microbe, parasite or virus in culture; type: functional; conditions: ATCC 25923
Description: Antibacterial activity against Staphylococcus aureus ATCC 25923 after 24 to 48 hr by CLSI broth microdilution method

| Structure (SMILES) | MIC (Nakaseomyces glabratus [1]) [µg/mL] | MIC (Nakaseomyces glabratus [2]) [µg/mL] | MIC (Candida albicans [3]) [µg/mL] | MIC (Enterococcus faecalis) [µg/mL] | MIC (Klebsiella pneumoniae) [µg/mL] | MIC (Salmonella typhimurium) [µg/mL] | MIC (Proteus vulgaris) [µg/mL] | MIC (Pseudomonas aeruginosa) [µg/mL] | MIC (Escherichia coli) [µg/mL] | MIC (Candida parapsilosis) [µg/mL] | MIC ([Candida] zeylanoides) [µg/mL] | MIC (Pichia kudriavzevii) [µg/mL] | MIC (Candida tropicalis) [µg/mL] | MIC (Cyberlindnera jadinii) [µg/mL] | MIC (Candida albicans [4]) [µg/mL] | MIC (Staphylococcus aureus) [µg/mL] |
| --- | --- | --- | --- | --- | --- | --- | --- | --- | --- | --- | --- | --- | --- | --- | --- | --- |
| COc1cc(Cc2cnc(N)nc2N)cc(OC)c1OC.O.O.O=C(O)C(=O)O [TRIMETHOPRIM OXALIC ACID SALT DIHYDRATE] | 25 | 50 | 50 | 50 | 50 | 50 | 50 | 50 | 50 | – | – | – | – | – | – | – |
| COc1cc(Cc2cnc(N)nc2N)cc(OC)c1OC.O=C(O)/C=C\C(=O)O [TRIMETHOPRIM MALEIC ACID SALT] | 50 | 50 | 50 | 50 | 50 | 50 | 50 | 50 | 50 | – | – | – | – | – | – | – |
| COc1cc(Cc2cnc(N)nc2N)cc(OC)c1OC [TRIMETHOPRIM] | 25 (≈ 86.1 µM) | 50 (≈ 172 µM) | 50 (≈ 172 µM) | 50 (≈ 172 µM) | 50 (≈ 172 µM) | 50 (≈ 172 µM) | 50 (≈ 172 µM) | 50 (≈ 172 µM) | 50 (≈ 172 µM) | – | – | – | – | – | – | – |
| CC(=O)N1CCN(c2ccc(OCC3COC(Cn4ccnc4)(c4ccc(Cl)cc4Cl)O3)cc2)CC1 (configuration not stated) [KETOCONAZOLE] | 3.12 (≈ 5.88 µM) | 25 (≈ 47 µM) | 12.5 (≈ 23.5 µM) | – | – | – | – | – | – | 1.56 (≈ 2.94 µM) | 25 (≈ 47 µM) | 25 (≈ 47 µM) | 12.5 (≈ 23.5 µM) | 12.5 (≈ 23.5 µM) | 3.12 (≈ 5.88 µM) | – |
| O=C(N[C@H](CO)[C@H](O)c1ccc([N+](=O)[O-])cc1)C(Cl)Cl [CHLORAMPHENICOL] | – | – | – | 12.5 (≈ 38.7 µM) | 12.5 (≈ 38.7 µM) | 12.5 (≈ 38.7 µM) | 50 (≈ 155 µM) | 50 (≈ 155 µM) | – | – | – | – | – | – | – | 50 (≈ 155 µM) |
